Data taken from patent publication US11485657B2, “Biological remediation of groundwater using an algal photobioreactor system” (priority 2019, dated 2022).

System: C. subellipsoidea
Assay: Paraoxon hydrolysis in C. subellipsoidea cultures assayed by p-nitrophenol production (absorbance 408 nm)
Type: cell-based, Coccomyxa subellipsoidea
Settings: for hydrolysis of paraoxon into p-nitrophenol with oligomycin and rotenone in the dark: oligomycin 20 μg/mL and rotenone 20 μg/mL together, samples at 12 h, 24 h, 48 h

Row | Structure (SMILES) | effect on paraoxon hydrolysis, DCMU and paraoxon in the light (actively growing cultures, light) | production of p-nitrophenol from paraoxon in the presence of DCMU (paraoxon 0.25 mg/mL, 12 h, light, versus absence of DCMU) | hydrolysis of paraoxon into p-nitrophenol with oligomycin and rotenone in the dark (paraoxon 0.25 mg/mL)
1 | CN(C)C(=O)Nc1ccc(Cl)c(Cl)c1 [DCMU, 3-(3,4-dichlorophenyl)-1,1-dimethylurea] | blocked hydrolysis | decreased nearly two-fold | –
2 | CC[C@H]1/C=C/C=C/C[C@@H](C)[C@H](O)[C@@](C)(O)C(=O)[C@@H](C)[C@H](O)[C@@H](C)C(=O)[C@@H](C)[C@H](O)[C@@H](C)/C=C/C(=O)O[C@@H]2[C@H](C)[C@H](CC1)O[C@]1(CC[C@H](C)[C@H](C[C@@H](C)O)O1)[C@H]2C [oligomycin] | – | – | not hydrolyzed
3 | C=C(C)[C@H]1Cc2c(ccc3c2O[C@@H]2COc4cc(OC)c(OC)cc4[C@@H]2C3=O)O1 [rotenone] | – | – | not hydrolyzed
